In patent publication US12146196B2, “C-RAF mutants that confer resistance to RAF inhibitors” (DANA-FARBER CANCER INSTITUTE, INC., priority 2012, dated 2024):

Key:
[1] = test system: A375 cells expressing C-RAF resistance allele G361A; experiment: Pharmacologic growth inhibition assay, G361A cells; assay type: cell-based, human; settings: A375 expressing C-RAF G361A vs WT-C-RAF
Description: (§1) GI50 values were calculated by determining the slope of the line connecting the data points that flanked the 50% point.

[2] = test system: A375 cells expressing C-RAF resistance allele P261T; experiment: Pharmacologic growth inhibition assay, P261T cells; assay type: cell-based, human; settings: for increase of GI50 values compared to the WT: A375 expressing C-RAF P261T vs WT-C-RAF
Description: as §1

pMek1/2, pErk1/2 = experiment: Immunoblot of pMek/pErk in A375 cells expressing C-RAF alleles; assay type: cell-based, human
Description: (§2) Samples were extracted after washing twice with PBS and lysed with 150 mM NaCl, 50 mM Tris pH 7.5, 1 mM EDTA, PMSF, Sodium Fluoride, Sodium Orthovanadate and protease inhibitor cocktail in the presence of 1% NP-40. The protein content was estimated with protein assay reagent (Bio-Rad) according to the manufacturer's instructions. Equal amounts of whole cell lysates were loaded onto and separated by 8-16% SDS-PAGE ready-made gels. Proteins were transferred to polyvinylidene difluoride membranes in a Trans-Blot apparatus. Membranes were blocked with 5% skim milk in TBS containing 0.1% Tween 20 for 1 h at room temperature or overnight at 4° C. Membranes were then incubated with monoclonal or polyclonal antibody raised against the protein of interest for 1 h at room temperature or overnight at 4° C. followed by three washes with TBS containing 0.1% Tween 20. The immunoreactivity of the primary antibodies C-RAF, S259C-RAF, S338C-RAF, S621C-RAF, PERK, ERK, pMEK, MEK, 14-3-3ζ Flag (Cell Signaling), B-RAF (Santa Cruz Biotechnology) and actin (Sigma) was visualized with a secondary anti-rabbit (BD Transduction Laboratories) or anti-mouse (Santa Cruz Biotechnology) antibodies conjugated with horseradish peroxidase and subsequent development with ECL Plus (Amersham Biosciences) and autoradiography on X-OMAR TAR films. The bands were scanned and quantified by the Gel Doc system using the Quantity One software.

[3] = test system: A375 cells expressing C-RAF resistance allele S257P; experiment: Pharmacologic growth inhibition assay, S257P cells; assay type: cell-based, human; settings: for increase of GI50 values compared to the WT: A375 expressing C-RAF S257P vs WT-C-RAF
Description: as §1

C-RAF (S259, S338, S621) = experiment: Immunoblot of C-RAF phosphorylation sites S259, S338, S621; assay type: cell-based, human; settings: for S259 phosphorylation: A375 expressing resistance mutants
Description: as §2

[4] = test system: A375 cells expressing WT-C-RAF; experiment: Pharmacologic growth inhibition assay, WT-C-RAF cells; settings: Homo sapiens, A-375, 96 h
[5] = target: B-RAF/C-RAF heterodimerization (Homo sapiens, UniProt P04049+P15056, V600E); experiment: Immunoprecipitation with C-RAF, bound B-RAF; assay type: cell-based; settings: A375 melanoma cells, wild-type C-RAF; 2 μM
[6] = test system: B-RAF/C-RAF heterodimerization; experiment: Immunoprecipitation with C-RAF, bound B-RAF; assay type: cell-based, human
14-3-3/C-RAF interaction [7] = experiment: Immunoprecipitation with C-RAF, bound 14-3-3ζ; assay type: cell-based, human
Description: (§3) (A) 293/T cells transiently expressing the indicated C-RAF resistance mutants in the absence (−) or presence (+) of 2 μM vemurafenib for 1 h were immunoprecipitated with C-RAF and levels of bound protein (B-RAF and 14-3-3 ζ) (upper panels) was assessed by immunoblotting. Input lysate (lower panels) show 14-3-3 ζ, B-RAF, C-RAF, pMek1/2, pErk1/2, Mek, S338 C-RAF and actin. Results are representative of more than two independent experiments. (B) A375 cells stably expressing the indicated C-RAF resistance mutants in the presence and absence of 2 μM vemurafenib for 16 h were immunoprecipitated with C-RAF and levels of bound protein (B-RAF and 14-3-3 ζ) (upper panels) was assessed by immunoblotting. Input lysate was blotted for the same as in FIG. 7A. Results are representative of more than two independent experiments.
(§4) For immunoprecipitation with C-RAF antibody (BD Biosciences) protein G-Sepharose slurry (Thermo Scientific) was washed with 1×PBS and incubated with C-RAF antibody (BD Biosciences) or normal mouse IgG (control) for 1 h at 4° C. After three washes with lysis buffer, the beads were incubated with whole cell lysates (0.5 mg of total protein) for 2 h and then washed three times with lysis buffer. The proteins were then eluted by boiling in 1×SDS-sample buffer.

14-3-3/C-RAF interaction [8] = target: T1, 14-3-3/C-RAF interaction (Homo sapiens, UniProt P04049); experiment: Immunoprecipitation with C-RAF, bound 14-3-3ζ; assay type: cell-based; settings: A375 cells (BRAF V600E)
T1 construct: expressed in transfected cells; 14-3-3 ζ endogenous
Description: as §3, §4

C-RAF resistance mutants [9] = experiment: C-RAF kinase assay (293T); assay type: biochemical, human; settings: 293T cells treated with 2 μM vemurafenib prior to assay; all resistance alleles examined
Description: The 293T cells (70% confluent) were transfected with 6 μg pc-DNA with His or V5 tag towards the C-terminal containing C-RAF-WT and C-RAF variant alleles. Cells were treated with vemurafenib (Allele Biotech) for 1 h and 48 h post-transfection, lysates were extracted by general protocol. Immunoprecipitation using cobalt beads was performed […] for 1 hr at 4° C. […] The phosphorylated MEK product was detected by immunostaining using a p-MEK antibody (Cell Signaling Technology), and relative p-MEK signals were quantified using densitometry, normalized to the amount of input C-RAF, and compared to C-RAF-WT as a reference.

p-MEK, p-ERK = experiment: Immunoblot of MEK/ERK signaling in 293T cells expressing C-RAF resistance mutants; assay type: cell-based, human; settings: 2 μM
Description: as §2, with “The immunoreactivity of the primary antibodies C-RAF, S259C-RAF, S338C-RAF, S621C-RAF, PERK, ERK, pMEK, MEK, 14-3-3ζ Flag (Cell Signaling), B-RAF (Santa Cruz Biotechnology) and actin (Sigma) was visualized with a secondary anti-rabbit (BD Transduction Laboratories) or anti-mouse (Santa Cruz Biotechnology) antibodies conjugated with horseradish peroxidase and subsequent development with ECL Plus (Amersham Biosciences) and autoradiography on X-OMAR TAR films.” left out

C-RAF homodimer = experiment: C-RAF homodimerization, Ni2+ bead pull-down of His-tagged C-RAF, anti-Flag immunoblot; assay type: cell-based, human; settings: 293T cells expressing C-RAF resistance mutants; 2 μM, 1 h
Description: (A) 293T cells co-expressing His/V5-tagged and Flag-tagged C-RAF resistance mutants for 48 h were immunoprecipitated with Nickel (see Methods) to pull down His-tagged C-RAF, and Flag tagged C-RAF was assessed by immunoblotting. Input lysate was also assessed using antibodies that detected Flag-C-RAF, V5-C-RAF, total C-RAF, p-MEK, p-ERK and total ERK. (B) 293T cells co-expressing His/V5-tagged and Flag-tagged C-RAF resistance mutants were treated with either vehicle (DMSO) or 2 μM of vemurafenib for 1 h, and His/V5-tagged C-RAFwas immunoprecipitated as in (A) above. Input lysates were immunoblotted using antibodies recognizing C-RAF (S338), p-MEK, p-ERK, and actin (loading control). (C) In vitro C-Raf kinase activity was measured in cell extracts derived from 293T cells transiently expressing Flag-tagged empty vector (“C”), wild type C-RAF (“WT”), and C-RAF harboring the resistance mutants S257P, P261T, G361A and E478K. Assays were performed in the presence or absence of 2 μM vemurafenib (see Methods). […] (D) In vitro C-Raf kinase activity was measured in cell extracts derived from A375 cells (B-RAF^V600E) (“C”) and A375 stably expressing wild type C-RAF (“WT”), and C-RAF harboring the resistance mutants S257P, P261T, and G361A in the presence and absence of 2 μM vemurafenib. […]

C-RAF resistance mutants [10] = experiment: C-RAF kinase assay (A375); assay type: biochemical, human; settings: A375 expressing S257P, P261T and G361A; exposure to 2 μM vemurafenib
Description: (§5) A375 cells infected with WT and mutant C-RAF alleles were cultured in the absence and presence of PLX4032 (Allele Biotech) for 16 h. Lysates were prepared with 150 mM NaCl, 50 mM Tris pH 7.5, 1 mM EDTA, PMSF, Sodium Fluoride, Sodium Orthovanadate and protease inhibitor cocktail in the presence of 1% NP-40. Immunoprecipitation with C-RAF antibody was performed overnight and bound beads were washed three times with lysis buffer, followed by kinase buffer (1×). […] The phosphorylated substrate MEK was detected by immunoblotting.

C-RAF resistance mutants [11] = target: T2, C-RAF resistance mutants (Homo sapiens, UniProt P04049, G361A); experiment: C-RAF kinase assay (A375); assay type: biochemical; settings: A375 expressing G361A; Vemurafenib 16 h
T2 construct: expressed in transfected cells
Description: as §5

[12] = A375 expressing S257P, P261T and G361A, PLX4720 2 μM 16 h

## COC(=O)N[C@@H](C)CNc1nccc(-c2cn(C(C)C)nc2-c2cc(Cl)cc(NS(C)(=O)=O)c2F)n1 [(S)-methyl 1-(4-(3-(5-chloro-2-fluoro-3-(methylsulfonamido)phenyl)-1-isopropyl-1H-pyrazol-4-yl)pyrimidin-2-ylamino)propan-2-ylcarbamate]
[1]
  increase of GI50 values / resistance compared to the WT: 20 fold
[2]
  increase of GI50 values compared to the WT: ~30,000 fold
pMek1/2, pErk1/2; 1 μM, A375 expressing C-RAF resistance mutants
  biochemical resistance (pMek/pErk): conferred resistance
[3]
  increase of GI50 values compared to the WT: ~10,000 fold

## Cn1cnc2c(F)c(Nc3ccc(Br)cc3Cl)c(C(=O)NOCCO)cc21 [AZD6244]
pMek1/2, pErk1/2; A375 expressing resistance mutants, AZD6244 1 μM 16 h
  pErk: diminishing levels
C-RAF (S259, S338, S621); AZD6244 1 μM 16 h
  S259 phosphorylation: attenuated

## CCCS(=O)(=O)Nc1ccc(F)c(C(=O)c2c[nH]c3ncc(Cl)cc23)c1F [PLX4720]
[1]
  increase of GI50 values / resistance compared to the WT: 30 fold
[2]
  increase of GI50 values compared to the WT: ~100 fold
[4]
  GI50: 400 nM
pMek1/2, pErk1/2; 2 μM, A375 cells and WT-C-RAF expressing cells
  Mek phosphorylation (pMek) and Erk phosphorylation (pErk): attenuated
pMek1/2, pErk1/2; 2 μM, A375 expressing C-RAF resistance alleles
  pMek and pErk: sustained pMek and pErk
pMek1/2, pErk1/2; A375 expressing CRAF G361A, high PLX4720 concentrations
  p-MEK: substantial “paradoxical” activation
C-RAF (S259, S338, S621); [12]
  phosphorylation of S338: induced
  phosphorylation of S621: modest increase
C-RAF (S259, S338, S621); PLX4720
  S259 phosphorylation: induced
[3]
  increase of GI50 values compared to the WT: ~100 fold

## CCCS(=O)(=O)Nc1ccc(F)c(C(=O)c2c[nH]c3ncc(-c4ccc(Cl)cc4)cc23)c1F [Vemurafenib]
[1]
  increase of GI50 values / resistance compared to the WT: 50 fold
[5]
  B-RAF/C-RAF heterodimerization: abrogated
[6]; 293/T cells ectopically expressing wild-type C-RAF, 2 μM
  B-RAF/C-RAF heterodimerization: induced
[6]; A375 cells expressing the most robust C-RAF resistance mutants, in the presence of drug
  B-RAF heterodimerization: sustained
14-3-3/C-RAF interaction [7]; 293/T cells
  14-3-3/C-RAF interactions: enhanced
14-3-3/C-RAF interaction [7]; A375 cells (BRAF V600E)
  14-3-3ζ binding to C-RAF S257P, P261T and G361A mutants: no effect
14-3-3/C-RAF interaction [8]
  14-3-3ζ binding to wild-type C-RAF: modestly decreased
C-RAF resistance mutants [9]
  C-RAF kinase activity (p-MEK): marked up-regulation
[2]; A375 expressing C-RAF P261T
  resistance in growth inhibition: increased resistance
[4]
  GI50: 400 nM
p-MEK, p-ERK; 293/T cells, C-RAF G361A co-expressed with dimerization-deficient R401H double mutant, 1 hr
  MEK/ERK activation: further induced
p-MEK, p-ERK; 293T cells expressing C-RAF resistance mutants, 1 h
  downstream MEK/ERK signaling: robustly induced
C-RAF homodimer
  C-RAF dimerization: sustained but not further enhanced
C-RAF resistance mutants [10]
  C-RAF kinase activity: further augmented
C-RAF resistance mutants [11]
  C-RAF kinase activity in presence of the drug: even higher kinase activity
C-RAF (S259, S338, S621); 293T cells expressing C-RAF resistance mutants, 2 μM, 1 h
  C-RAF activation (S338 phosphorylation): robustly induced
[3]; A375 expressing C-RAF S257P
  resistance in growth inhibition: increased resistance
